Experiments:
[1] = system: ECHCG (barnyardgrass); test: Pre-emergence herbicidal activity, warm season; type: in vivo, Echinochloa crus-galli; conditions: for Pre-emergence activity (GR80) ECHCG: GR80 = lowest tested rate (300, 100, 30, 10 g/ha) with 80% or greater inhibition, approx. 14 days after treating, 30/21° C.
Method in brief: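 Activity is expressed as the rate giving 80% inhibition, with 300, 100, 30 and 10 g/ha typically tested. An asterisk marks activity short of 80% at the top rate. Warm-season grasses were held at 30/21 °C; cool-season blackgrass and wild buckwheat at 18/13 °C; scoring at about 14 days.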

[2] = system: GALAP (catchweed bedstraw); test: Pre-emergence herbicidal activity, cool season; type: in vivo, Galium aparine; conditions: lowest tested rate with 80% or greater inhibition; rates 300, 100, 30, 10 g/ha; about 14 days
Method in brief: (§1)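 GR80 values derive from percent inhibition relative to untreated plants, read roughly 14 days after sowing and pre-emergence soil-surface treatment (compound in 50:50 acetone/water; rates typically 10, 30, 100, 300 g/ha). Warm-season weeds grew at 30/21° C day/night, cool-season ones at 18/13° C; an asterisk marks activity without reaching 80% at the highest rate.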

[3] = system: ALOMY (blackgrass); test: Pre-emergence herbicidal activity, cool season; type: in vivo, Alopecurus myosuroides; conditions: GR80 = lowest tested rate (300, 100, 30, 10 g/ha) with 80% or greater inhibition; approx. 14 days after treating; 18/13° C.
Method in brief: as §1

[4] = system: SOLNI (black nightshade); test: Pre-plant incorporated (PPI) herbicidal activity, warm season; type: in vivo, Solanum nigrum; conditions: for PPI activity (GR80) SOLNI: pre-plant incorporated, GR80 = lowest tested rate with 80% or greater inhibition, approx. 14 days after treating, 30/21° C.
Protocol: (§2) In another set of tests, the pre-plant incorporated (PPI) activity of compounds of this invention was evaluated on the same species as for the pre-emergence tests described above. In the PPI tests the following procedure, designed to simulate PPI application, was used.
(§3) A pre-prepared topsoil mixture (described above) was placed in a pot and compacted to a depth of 1.0 to 1.25 cm from the top of the pot. Seeds of each of several monocotyledonous and dicotyledonous annual plant species were placed on top of the soil. A sufficient quantity of soil to cover the seeds and level fill the pot was weighed into an open container. A known amount of the test compound was dissolved or suspended in an organic solvent and applied by spraying to this cover soil. The cover soil was thoroughly mixed to distribute the test compound throughout the cover soil, and was then applied as a cover layer over the seeds. Untreated soil was used as a cover layer for control pots. After treatment the plants were placed in a greenhouse where they received 0.64 cm of overhead irrigation. All subsequent watering consisted of a light overhead mist and/or subirrigation as needed for germination and growth. Tables 9 and 10 below relate to warm season plant species which were placed after pre-emergence treatment in a greenhouse with a 30/21° C. day/night temperature regime. Tables 11 and 12 below relates to cool season plant species placed after pre-emergence treatment in a greenhouse or growth chamber with an 18/13° C. day/night temperature regime. Only the compounds of Examples 1, 6, 8, 11, 13 and 15-20 were included in PPI tests.
(§4) Approximately 14 days after planting and treating, the plants were observed and herbicidal efficacy recorded as percent inhibition by comparison with untreated plants.

[5] = system: AMARE (redroot pigweed); test: as above; type: in vivo, Amaranthus retroflexus; conditions: for PPI activity (GR80) AMARE: pre-plant incorporated, GR80 = lowest tested rate with 80% or greater inhibition, approx. 14 days after treating, 30/21° C.
Protocol: as §2, §3, §4

[6] = system: CHEAL (common lambsquarters); test: as above; type: in vivo, Chenopodium album; conditions: pre-plant incorporated; GR80 = lowest tested rate with 80% or greater inhibition; approx. 14 days after treating; 30/21° C.
Protocol: as §2, §3, §4

[7] = system: PANMI (wild proso millet); test: as above; type: in vivo, Panicum miliaceum; conditions: for PPI activity GR80, PANMI: pre-plant incorporated, lowest tested rate with 80% or greater inhibition, about 14 days
Protocol: as §2, §3, §4

[8] = system: SETFA (giant foxtail); test: as above; type: in vivo, Setaria faberi; conditions: for PPI activity GR80, SETFA: pre-plant incorporated, lowest tested rate with 80% or greater inhibition, about 14 days
Protocol: as §2, §3, §4

[9] = system: AGSST (creeping bentgrass); test: Pre-plant incorporated (PPI) herbicidal activity, cool season; type: in vivo, Agrostis stolonifera; conditions: pre-plant incorporated; lowest tested rate with 80% or greater inhibition; about 14 days
Protocol: as §2, §3, §4

Q: With `CCN(CC)C(=O)n1cnc(S(=O)(=O)C(F)(F)C(F)(F)SC)n1` [Example 14] as the compound, how does the “Pre-emergence activity (GR80) ECHCG” value [1] read?
A: 300 g/ha

Q: And the “Pre-emergence activity GR80, GALAP” value [2]?
A: 30 g/ha

Q: What about the “Pre-emergence activity (GR80) ALOMY” value [3] of the same compound?
A: 100 g/ha

Q: How did the “Pre-emergence activity (GR80) ECHCG” value [1] turn out when `CCN(CC)C(=O)n1cnc(S(=O)(=O)C(F)(F)C(=O)c2ccccc2)n1` [Example 6] was run?
A: * (activity observed, at least at highest rate, but <80% inhibition)

Q: What about the “Pre-emergence activity GR80, GALAP” value [2] of the same compound?
A: 100 g/ha

Q: What about the “Pre-emergence activity (GR80) ALOMY” value [3] of the same compound?
A: 100 g/ha

Q: What about the “PPI activity (GR80) SOLNI” value [4] of the same compound?
A: 100 g/ha

Q: What about the “PPI activity (GR80) AMARE” value [5] of the same compound?
A: 100 g/ha

Q: What about the “PPI activity (GR80) CHEAL” value [6] of the same compound?
A: 100 g/ha

Q: What about the “PPI activity GR80, PANMI” value [7] of the same compound?
A: 100 g/ha

Q: And the “PPI activity GR80, SETFA” value [8]?
A: 100 g/ha

Q: What about the “PPI activity GR80, AGSST” value [9] of the same compound?
A: 100 g/ha

Q: Which results are given for `CCN(CC)C(=O)n1cnc(S(=O)(=O)C(F)F)n1` [Example 15, 1-(N,N-diethylcarbamoyl)-3-(difluoromethylsulfonyl)-1,2,4-triazole]?
A: inhibition at 10 g/ha ([1]; Echinochloa crus-galli, pre-emergence application, 10 g/ha, read-out: Percent inhibition, weed ECHCG): 0%; inhibition at 30 g/ha ([1]; Echinochloa crus-galli, pre-emergence application, 30 g/ha, read-out: Percent inhibition, weed ECHCG): 0%; inhibition at 100 g/ha ([1]; Echinochloa crus-galli, pre-emergence application, 100 g/ha, read-out: Percent inhibition, weed ECHCG): 20%; inhibition at 300 g/ha ([1]; Echinochloa crus-galli, pre-emergence application, 300 g/ha, read-out: Percent inhibition, weed ECHCG): 60%; inhibition at 900 g/ha ([1]; Echinochloa crus-galli, pre-emergence application, 900 g/ha, read-out: Percent inhibition, weed ECHCG): 70%; Pre-emergence activity (GR80) ECHCG [1]: 100 g/ha; inhibition at 10 g/ha ([4]; Solanum nigrum, PPI application, 10 g/ha, read-out: Percent inhibition SOLNI): 0%; inhibition at 30 g/ha ([4]; Solanum nigrum, PPI application, 30 g/ha, read-out: Percent inhibition SOLNI): 0%; inhibition at 100 g/ha ([4]; Solanum nigrum, PPI application, 100 g/ha, read-out: Percent inhibition SOLNI): 20%; inhibition at 300 g/ha ([4]; Solanum nigrum, PPI application, 300 g/ha, read-out: Percent inhibition SOLNI): 100%; inhibition at 900 g/ha ([4]; Solanum nigrum, PPI application, 900 g/ha, read-out: Percent inhibition SOLNI): 99%; PPI activity (GR80) SOLNI [4]: 100 g/ha; inhibition at 10 g/ha ([5]; Amaranthus retroflexus, PPI application, 10 g/ha, read-out: Percent inhibition AMARE): 20%; inhibition at 30 g/ha ([5]; Amaranthus retroflexus, PPI application, 30 g/ha, read-out: Percent inhibition AMARE): 100%; inhibition at 100 g/ha ([5]; Amaranthus retroflexus, PPI application, 100 g/ha, read-out: Percent inhibition AMARE): 80%; inhibition at 300 g/ha ([5]; Amaranthus retroflexus, PPI application, 300 g/ha, read-out: Percent inhibition AMARE): 100%; inhibition at 900 g/ha ([5]; Amaranthus retroflexus, PPI application, 900 g/ha, read-out: Percent inhibition AMARE): 100%; PPI activity (GR80) AMARE [5]: 100 g/ha; PPI activity (GR80) CHEAL [6]: 100 g/ha; inhibition at 10 g/ha ([7]; Panicum miliaceum, PPI application, 10 g/ha, read-out: Percent inhibition PANMI): 10%; inhibition at 30 g/ha ([7]; Panicum miliaceum, PPI application, 30 g/ha, read-out: Percent inhibition PANMI): 70%; inhibition at 100 g/ha ([7]; Panicum miliaceum, PPI application, 100 g/ha, read-out: Percent inhibition PANMI): 99%; inhibition at 300 g/ha ([7]; Panicum miliaceum, PPI application, 300 g/ha, read-out: Percent inhibition PANMI): 100%; inhibition at 900 g/ha ([7]; Panicum miliaceum, PPI application, 900 g/ha, read-out: Percent inhibition PANMI): 100%; PPI activity GR80, PANMI [7]: 30 g/ha; inhibition at 30 g/ha ([8]; Setaria faberi, PPI application, 30 g/ha, read-out: Percent inhibition SETFA): 40%; inhibition at 100 g/ha ([8]; Setaria faberi, PPI application, 100 g/ha, read-out: Percent inhibition SETFA): 99%; inhibition at 300 g/ha ([8]; Setaria faberi, PPI application, 300 g/ha, read-out: Percent inhibition SETFA): 100%; inhibition at 900 g/ha ([8]; Setaria faberi, PPI application, 900 g/ha, read-out: Percent inhibition SETFA): 100%; PPI activity GR80, SETFA [8]: 30 g/ha; PPI activity GR80, AGSST [9]: 100 g/ha

From US6461997B1, “Triazole sulfones having herbicidal activity” (Monsanto Technology LLC, priority 1999, dated 2002)
